Legend:
selectin receptors = conditions: Berg et al.; cited from earlier work
ELAM-1 [1] = target: T1, ELAM-1 (Homo sapiens, UniProt P16581); assay: Liposome inhibition of neutrophil (PMN) adhesion to IL-1 activated endothelium (HUVEC); type: cell-based; conditions: for inhibition of neutrophil adhesion to activated endothelium: E-Selectin dependent binding assay, liposomes
T1 construct: adhesion of neutrophils (PMN)
T1 sequence (P16581 22-610): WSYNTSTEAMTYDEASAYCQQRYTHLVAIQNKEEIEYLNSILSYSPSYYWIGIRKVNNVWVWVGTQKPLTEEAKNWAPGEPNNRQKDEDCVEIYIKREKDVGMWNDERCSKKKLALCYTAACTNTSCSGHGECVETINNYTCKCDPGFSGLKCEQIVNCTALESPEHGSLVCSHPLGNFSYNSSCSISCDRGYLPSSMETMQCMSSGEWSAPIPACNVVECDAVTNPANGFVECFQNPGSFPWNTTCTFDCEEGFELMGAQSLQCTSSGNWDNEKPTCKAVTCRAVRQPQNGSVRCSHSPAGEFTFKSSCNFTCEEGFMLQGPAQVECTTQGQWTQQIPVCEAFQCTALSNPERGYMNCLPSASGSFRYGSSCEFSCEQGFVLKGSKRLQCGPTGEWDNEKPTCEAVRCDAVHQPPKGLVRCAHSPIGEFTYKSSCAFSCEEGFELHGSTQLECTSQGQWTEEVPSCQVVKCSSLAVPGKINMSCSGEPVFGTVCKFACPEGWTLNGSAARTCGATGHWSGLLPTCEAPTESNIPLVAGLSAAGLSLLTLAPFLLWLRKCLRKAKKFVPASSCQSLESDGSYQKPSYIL
Experimental: Two synthetic compounds were prepared. One comprised sialic acid in an α2,3 linkage, as in naturally occurring SLe^x. The second comprised sialic acid in an α2,6 linkage, to examine the importance of the nature of the linkage to receptor binding.
Liposomes were prepared by adding 12 μl of absolute ethanol (ETOH) to each tube, warming briefly in a 50° C. water bath and sonicating for 2 min. 238 μl of warm phosphate buffered saline (PBS) was added slowly to each tube while sonicating and sonication was continued for a further 10 min. The final concentration of stock liposomes was 400 μg glycolipids/ml in 5% ETOH/PBS.
1. HUVECs, PMNs, and liposomes were prepared as described above.
2. The stimulated HUVEC assay plate was removed from the incubator and the wells were washed two times with RPMI 1640 containing 5 mg/ml bovine serum albumin (BSA).
3. Liposomes stocks were diluted in the HBSS/BSA buffer to make solutions equal to: 40 μg/ml, 30 μg/ml, 15 μg/ml, 7.5 μg/ml, 3.75 μg/ml and 1.87 μg/ml. Similar dilutions were prepared from a control stock consisting of PBS-5% ETOH.
4. The medium was removed from the wells of the assay plate with a pasteur pipette, a few wells at a time.
5. 0.05 ml of each liposome suspension was added to duplicate wells on the stimulated assay plate. Control wells received the liposome buffer containing ethanol HBSS and BSA at the same concentrations as in the liposome containing wells. Control buffer was plated on unstimulated and stimulated HUVEC. Liposome containing samples were added to stimulated wells only.
6. The plates were incubated for 40 min at 37° C. and then 50 μl of PMNs were added to the assay wells. The final concentration of cells was 5×10^5 well in 100 μl.
7. The assay plate was returned to the incubator (5% CO2, 37° C.) for 8 min.
8. Unbound cells were removed from the wells of the assay plates by systematic resuspension using a P200 multichannel pipette followed by addition and removal of 0.2 ml of medium.
9. All of the medium was removed from the wells and 50 μl of solubilization buffer was added. This consisted of citrate buffer (24.3 ml of 0.1M Citric acid, 10.5 g/500 ml+25.7 ml of 0.2M dibasic sodium phosphate, 14.2 g/500 ml and SQ H2 O to 100 ml) containing 0.1% NP-40 detergent.
10. The plate was incubated on a rotary shaker for 10 min and then 0.05 ml of OPDA solution [8 mg o-phenylene-diamine, Sigma cat# P-1526, 8 μl of 30% H2 O2 and 10 ml of citrate buffer (as above)] was added to each well. The reaction was allowed to develop for 15 min and then 25 μl of 4N H2 SO4 was added to each well to stop the reaction.
11. A reagent bulk was prepared by mixing 100 μl volumes of the solubilization buffer and the OPDA solution with 50 μl of 4N H2 SO4.
12. 100 μl of supernatant was removed from each of 2 wells and transferred to a flexible ELISA assay plate (Falcon). The plate was scanned spectrophotometrically at 492 nm within 30 min.

ELAM-1 [2] = target: T1, ELAM-1; assay: as above; type: cell-based; conditions: 0.47 μg/ml; Control +IL-1β 0.782
[3] = 1.87 μg/ml, Control +IL-1β 0.725
[4] = 3.75 μg/ml, Control +IL-1β 0.698
[5] = 7.5 μg/ml, Control +IL-1β 0.658

Row | Compound | recognition by selectin receptors (selectin receptors) | Mean absorbance at 492 nm (bound neutrophils) (ELAM-1 [1]; [3]) | Mean absorbance at 492 nm (bound neutrophils) (ELAM-1 [1]; [4]) | Mean absorbance at 492 nm (bound neutrophils) (ELAM-1 [1]; [5]) | Mean absorbance at 492 nm (bound neutrophils) (ELAM-1 [1]; 15 μg/ml, Control +IL-1β 0.740) | Mean absorbance at 492 nm (bound neutrophils) (ELAM-1 [1]; 20 μg/ml, Control +IL-1β 0.657) | inhibition of neutrophil adhesion to activated endothelium (ELAM-1 [1]) | Mean absorbance at 492 nm (bound neutrophils) (ELAM-1 [2])
1 | CC(=O)N[C@H]1[C@H]([C@H](O)[C@H](O)CO)O[C@@](O[C@H]2[C@@H](O)[C@@H](CO)O[C@@H](O[C@H]3[C@H](O[C@@H]4O[C@@H](C)[C@@H](O)[C@@H](O)[C@@H]4O)[C@@H](CO)OC(O)[C@@H]3NC(C)=O)[C@@H]2O)(C(=O)O)C[C@@H]1O (stereo partly drawn) [SLe^a, NeuAcα2,3Galβ1,3(Fucα1,4)GlcNAcβ1--] | recognized by selectin receptors | – | – | – | – | – | – | –
2 | NeuAcα2,3Galβ1,4(Fucα1,3) GlcNAcβ1,3Galβ1,4Glcβ1,1Ceramide [(2,3) SLe^x] | – | 0.580 | 0.483 | 0.359 | 0.270 | 0.156 | inhibit neutrophil adhesion to activated endothelium | 0.642
3 | NeuAcα2,6Galβ1,4(fucα1,3)GlcNacβ1,3Galβ1,4Glcβ1,1Ceramide [(2,6) SLe^x, reference compound] | – | 0.690 | 0.655 | 0.602 | 0.636 | 0.663 | not | 0.695

— patent US5753631A, “Intercellular adhesion mediators” (Cytel Corporation, priority 1995, dated 1998)
